Test results as given in patent US9017681B2, “Adenylyl cyclases as novel targets for antibactrial interventions” (Cornell Research Foundation, Inc., priority 2007, dated 2015).
Entries after “also recorded” stand apart in the source; their conditions may differ. Like-named read-outs stand apart in the source and are kept apart here.

Legend:
[1] = system: P. aeruginosa CyaB (a Class III adenylyl cyclase); assay: Pseudomonas adenylyl cyclase assay with purified His-CyaB; format: biochemical, Pseudomonas aeruginosa; details: increasing concentrations of compound, FIG. 1 / FIG. 2
Protocol: (§1) FIG. 1. […] The CyaB was heterologously expressed in E. coli as a poly-histidine tagged fusion protein and purified using a nickel column. Adenylyl cyclase activity was determined by measuring cyclic AMP levels using the Correlate-EIA Direct Cyclic AMP assay kit from Assay Designs as per manufacturers instructions.
as §1, with “2.” for “1.”
P. aeruginosa CyaB (a Class III adenylyl cyclase) was heterologously expressed in E. coli as a HIS-tagged, fusion protein. Expression of the fusion protein was induced by Isopropyl β-D-1-thiogalactopyranoside (IPTG) t at 21° C. (empirically found to be best temperature for expression). The His-CyaB fusion protein was purified using a nickel affinity column according to standard protocols in the absence of any reducing agent. Eluted protein was dialyzed into storage buffer consisting of: 50 mM Tris (pH 8.5), 10 mM NaCl, 2 mM MgCl2, and 25% glycerol.
The purified CyaB was assayed for cyclase activity as follows. […]
(§2) Cyclic AMP levels were measured in each sample using the Correlate-EIA Direct Cyclic AMP assay kit from Assay Designs as per manufacturers instructions.

human sAC = target: T1, human sAC (Homo sapiens, UniProt Q96PN6); assay: in vitro adenylyl cyclase assay with purified human sAC protein (cAMP by Correlate-EIA); format: biochemical; details: for inhibition at 100 µM: 100 μM of compound
T1 construct: made in house
T1 sequence (Q96PN6 1-469 limits assumed): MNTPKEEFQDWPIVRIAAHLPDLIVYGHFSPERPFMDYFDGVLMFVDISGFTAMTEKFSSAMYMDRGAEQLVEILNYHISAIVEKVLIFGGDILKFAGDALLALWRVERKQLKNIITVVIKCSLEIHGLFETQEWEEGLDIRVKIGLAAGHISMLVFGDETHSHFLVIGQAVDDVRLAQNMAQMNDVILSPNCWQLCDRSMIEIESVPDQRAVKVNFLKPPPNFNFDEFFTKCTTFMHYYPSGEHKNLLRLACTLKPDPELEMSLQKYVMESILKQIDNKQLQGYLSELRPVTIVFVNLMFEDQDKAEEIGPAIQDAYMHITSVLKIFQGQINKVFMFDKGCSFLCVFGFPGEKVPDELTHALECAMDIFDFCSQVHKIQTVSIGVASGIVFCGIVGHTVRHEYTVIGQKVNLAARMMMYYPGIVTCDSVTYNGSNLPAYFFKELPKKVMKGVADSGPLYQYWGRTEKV
Protocol: Purified human sAC protein was used in an in vitro adenylyl cyclase assay. Purification of the protein is described in detail in Litvin et al. 2003. (J. Biol. Chem. 278:15922-15926). This paper also describes the general conditions for a sAC cyclase assay. The specific conditions for the in vitro assay are as follows.
For basal sAC activity, an assay master mixture with sufficient volume for all reactions was prepared containing:
100 U/ml creatine phosphokinase (CPK)
An aliquot of the master mixture was added to the purified human sAC. The assay mixture also included the indicated concentration of KH compound, or an equivalent volume of vehicle (i.e., DMSO) as control. The reaction was started by adding 5 mM ATP (total assay volume=100 μL). The reaction mixture was incubated at 30° C. for 30 minutes and then stopped by adding 100 μl […]. Stimulated assay conditions involve adding 40 mM bicarbonate and 5 mM CaCl2 to the above master mixture.
as §2

For O=C(CSc1nc2ccccc2[nH]1)N/N=C/c1ccc(O)c(O)c1 [KH7.148], which “effect on CyaB adenylyl cyclase activity” value [1] is on record?
The value was “inhibitor; also recorded: decrease in the activity”.

What about the inhibition at 100 µM (human sAC; BASAL human sAC in vitro activity, read-out: % Inhibition (100 μM), hsACt-Basal) of the same molecule?
The inhibition at 100 µM was 70%.

What about the inhibition at 100 µM (human sAC; stimulated human sAC in vitro activity, read-out: % Inhibition (100 μM), hsACt-Stim.) of the same molecule?
The inhibition at 100 µM was 80%.

What about the IC50 (human sAC; BASAL activity of human sAC in vitro (just Mg-ATP, no calcium or bicarbonate), read-out: hsACt-Basal approximate IC50 (or the dose range where the IC50 should lie)) of the same molecule?
Its IC50 is 10 to 100 µM.

And the IC50 (human sAC; stimulated activity of human sAC in vitro (calcium and bicarbonate stimulated), read-out: hsACt-Stim. approximate IC50 (or the dose range where the IC50 should lie))?
Its IC50 is 1 to 10 µM.
